Measured values: the NIST ThermoML archive (doi:10.1016/j.jct.2015.02.017)
± gives the expanded uncertainty stated by the source.

Experiment: mn = molality of the nth substance listed, in mol/kg
Conditions: 298.15 K, 101 kPa, Liquid; for viscosity: Capillary tube (Ostwald / Ubbelohde) method; for mass density: Vibrating tube method

C[n+]1ccn(CCCCCCn2cc[n+](C)c2)c1.[Br-].[Br-] + O
Conditions | mass density [kg/m3] | viscosity [mPa·s]
m1 = 0.0407 | – | 0.917 ± 0.019
m1 = 0.0814 | 1006.92 ± 0.089 | –
m1 = 0.0989 | – | 0.953 ± 0.02
m1 = 0.1 | 1009.1 ± 0.09 | –
m1 = 0.1196 | – | 0.966 ± 0.02
m1 = 0.1206 | 1011.5 ± 0.09 | –
m1 = 0.1403 | 1013.75 ± 0.092 | 0.98 ± 0.02
m1 = 0.1604 | – | 0.993 ± 0.021
m1 = 0.1772 | 1017.94 ± 0.095 | –
m1 = 0.2001 | – | 1.02 ± 0.021

C[n+]1ccn(CCCCCn2cc[n+](C)c2)c1.[Br-].[Br-] + O
Conditions | mass density [kg/m3] | viscosity [mPa·s]
m1 = 0.05 | 1003.25 ± 0.088 | 0.917 ± 0.019
m1 = 0.0825 | 1007.17 ± 0.09 | –
m1 = 0.0967 | – | 0.943 ± 0.02
m1 = 0.1108 | 1010.53 ± 0.091 | 0.949 ± 0.02
m1 = 0.1389 | – | 0.966 ± 0.02
m1 = 0.1522 | 1015.32 ± 0.093 | –
m1 = 0.1621 | – | 0.979 ± 0.02
m1 = 0.1929 | – | 0.996 ± 0.021
m1 = 0.2152 | 1022.44 ± 0.099 | –

C[n+]1ccn(CCCCn2cc[n+](C)c2)c1.[Br-].[Br-] + O
Conditions | mass density [kg/m3] | viscosity [mPa·s]
m1 = 0.0993 | 1009.54 ± 0.091 | 0.94 ± 0.02
m1 = 0.1398 | 1014.42 ± 0.093 | 0.958 ± 0.02
m1 = 0.1597 | 1016.78 ± 0.095 | 0.967 ± 0.02
m1 = 0.1794 | – | 0.977 ± 0.02
m1 = 0.194 | 1020.81 ± 0.098 | 0.984 ± 0.02
m1 = 0.2187 | 1023.65 ± 0.099 | 0.996 ± 0.021
m1 = 0.2485 | 1027.04 ± 0.1 | 1.008 ± 0.021

O=C[C@H](O)[C@@H](O)[C@H](O)[C@H](O)CO [D-glucose] + O
Conditions | mass density [kg/m3] | viscosity [mPa·s]
m1 = 0.2 | 1010.41 ± 0.14 | 0.975 ± 0.02
m1 = 0.4 | 1023.12 ± 0.14 | 1.068 ± 0.022
m1 = 0.8 | 1046.88 ± 0.15 | 1.28 ± 0.027
m1 = 1.2 | 1068.58 ± 0.16 | 1.532 ± 0.032
m1 = 1.6 | 1088.48 ± 0.16 | 1.83 ± 0.038
